# Test results as given in PMC7489219 (Molecular Brain, 2020).
# Where a name gives a salt, the structure may show the parent alone.
# System: T1, primary mouse cortical neurons
# T1 construct: primary cortical neurons, DIV 10
# Experiment: cells
# Design: Protection from NMDA-induced (30 uM, 10 min) neuronal death; Hoechst nuclear morphology by automated microscopy
# Conditions: Cortical neurone, 20 h, read-out: % inhibition, inhibition of NMDA-induced cell death (protection score), 30 min pre-treatment
# Description: On DIV 10, compounds were applied to the cells reaching an end concentration of 10 μM. Cells were incubated for 30 min at 37 °C, 5% CO2 before adding NMDA (30 μM). Cells were incubated for another 10 min in the incubator, then washed twice with defined minimal medium containing 10 μM of the respective compound and incubated for an additional 20 h before readout. Untreated (no NMDA) and NMDA-only stimulated wells were treated with 0.1% DMSO. […] After 15 min of incubation at room temperature, cells were washed twice with phosphate buffered saline. […] Dead neurons were identified by amorphous or shrunken nuclei using CellProfiler and CellProfiler Analyst software. For all cell death analyses the experimental unit (N) is defined as an independent experiment using an independent neuronal preparation. For each independent experiment, data from 3 replicate wells (i.e., from 36 images), representing an average of 3000 cells was analyzed per condition. The survival rate S was calculated by dividing the number of living cells by the total number of cells. The survival rate was then used to calculate the protection score according to Scompound−Svehicle/Suntreated−Svehicle×100=%protection , where ‘compound’ refers to compound + NMDA treatment, ‘vehicle’ refers to vehicle + NMDA treatment, and ‘untreated’ refers to DMSO control. […] As a proof of principle, we next used our assay to screen two commercially available drug libraries. In these screens, primary cortical cells were incubated with test compounds at 10 μM concentration for 30 min before addition of 30 μM NMDA. After 10 min NMDA treatment, cells were washed with fresh medium and kept in the presence of test compounds for 20 h until assessment of cell viability. […] This library covers structurally diverse drugs from several fields such as oncology, cardiology, immunology, and neurology/psychiatry.
row,Compound,inhibition at 10 µM
1,CC=CC1=C(C(=O)O)N2C(=O)[C@@H](NC(=O)[C@H](N)c3ccc(O)cc3)[C@H]2SC1 (mixture of isomers) [Cefprozil hydrate (Cefzil)],0.674%
2,CCC(C)n1ncn(-c2ccc(N3CCN(c4ccc(OC[C@H]5CO[C@](Cn6cncn6)(c6ccc(Cl)cc6Cl)O5)cc4)CC3)cc2)c1=O (mixture of isomers) [Itraconazole (Sporanox)],2.19%
3,C[N+](C)(C)CC(O)CC(=O)[O-] (racemic) [DL-Carnitine hydrochloride],2.11%
4,CC(C)n1c(/C=C/[C@H](O)C[C@H](O)CC(=O)O)c(-c2ccc(F)cc2)c2ccccc21 (racemic) [Fluvastatin sodium (Lescol)],-2.48%
5,CC(=O)N1CCN(c2ccc(OC[C@@H]3CO[C@@](Cn4ccnc4)(c4ccc(Cl)cc4Cl)O3)cc2)CC1 (racemic) [Ketoconazole],-15.9%
6,C[C@@H](NCCc1ccc(O)cc1)[C@@H](O)c1ccc(O)cc1 (racemic) [Ritodrine hydrochloride (Yutopar)],3.89%
7,COc1cc2c(cc1O)CC[C@@H]1[C@@H]2CC[C@]2(C)[C@@H](O)CC[C@@H]12 [2-Methoxyestradiol],19.8%
8,O=C(O)CCCc1c[nH]c2ccccc12 [3-Indolebutyric acid (IBA)],-1.77%
9,Cc1cc(=O)oc2cc(O)ccc12 [4-Methylumbelliferone (4-MU)],-0.113%
10,NCC(=O)CCC(=O)O [5-Aminolevulinic acid hydrochloride],-1.27%
11,N[C@@H](Cc1c[nH]c2ccc(O)cc12)C(=O)O [5-hydroxytryptophan (5-HTP)],-0.632%
12,CC(=O)C1=C(O)C=C2Oc3c(C(C)=O)c(O)c(C)c(O)c3[C@@]2(C)C1=O [(+)-Usniacin (D-Usnic acid)],-4.28%
13,O=C(O[C@@H]1Cc2c(O)cc(O)cc2O[C@@H]1c1cc(O)c(O)c(O)c1)c1cc(O)c(O)c(O)c1 [(-)-Epigallocatechin gallate],4.13%
14,C/C=C1\[C@H]2C=C(C)C[C@]1(N)c1ccc(=O)[nH]c1C2 [(-)-Huperzine A],-1.76%
15,C[C@@H](NCCCc1cccc(C(F)(F)F)c1)c1cccc2ccccc12 [AMG-073 HCl (Cinacalcet hydrochloride)],-14.8%
16,Nc1ncnc2c1ncn2[C@@H]1O[C@H](COP(=O)(O)OP(=O)(O)OP(=O)(O)O)[C@@H](O)[C@H]1O [ATP (Adenosine-Triphosphate)],0.248%
17,CC(=O)O[C@H]1CC[C@@]2(C)C(=CC[C@@H]3[C@@H]2CC[C@]2(C)C(c4cccnc4)=CC[C@@H]32)C1 [Abiraterone Acetate (CB7630)],-0.808%
18,NC(=O)c1ncn([C@@H]2O[C@H](CO)[C@@H](O)[C@H]2O)c1N [Acadesine],4.99%
19,C[C@H]1O[C@H](O[C@H]2[C@H](O)[C@@H](O)[C@@H](O[C@@H]([C@H](O)[C@@H](O)C=O)[C@H](O)CO)O[C@@H]2CO)[C@H](O)[C@@H](O)[C@@H]1N[C@H]1C=C(CO)[C@@H](O)[C@H](O)[C@H]1O [Acarbose],4.12%
20,CC(=O)N[C@@H](CS)C(=O)O [Acetylcysteine],29%

row,Compound,inhibition at 10 µM
1,Cc1cnc(C(=O)O)c[n+]1[O-] [Acipimox],-0.00389%
2,Nc1nc2c(ncn2COCCO)c(=O)[nH]1 [Acyclovir (Aciclovir)],-1.44%
3,COc1ccc(-c2ccc3cc(C(=O)O)ccc3c2)cc1[C@]12C[C@H]3C[C@H](C[C@H](C3)C1)C2 [Adapalene],63.6%
4,"CC(C)(C)C(=O)OCOP(=O)(COCCn1cnc2c(N)ncnc21)OCOC(=O)C(C)(C)C [Adefovir Dipivoxil (Preveon, Hepsera)]",18.8%
5,Nc1ncnc2c1ncn2[C@@H]1O[C@H](CO)[C@@H](O)[C@H]1O [Adenosine (Adenocard)],15.3%
6,O=c1[nH]cc(F)c(=O)[nH]1 [Adrucil (Fluorouracil)],-16.3%
7,COc1ccc2cccc(CCNC(C)=O)c2c1 [Agomelatine],-12.7%
8,CCCSc1ccc2[nH]c(NC(=O)OC)nc2c1 [Albendazole (Albenza)],28.3%
9,NCCCC(O)(P(=O)(O)O)P(=O)(O)O [Alendronate (Fosamax)],40.1%
10,COc1cc2nc(N(C)CCCNC(=O)C3CCCO3)nc(N)c2cc1OC (centres unmarked) [Alfuzosin hydrochloride (Uroxatral)],-0.34%
11,COCCCOc1cc(C[C@@H](C[C@H](N)[C@@H](O)C[C@H](C(=O)NCC(C)(C)C(N)=O)C(C)C)C(C)C)ccc1OC [Aliskiren hemifumarate],30.5%
12,Oc1ncnc2[nH]ncc12 [Allopurinol (Zyloprim)],19.8%
13,O=c1[nH]cnc2[nH]ncc12 [Allopurinol Sodium (Aloprim)],21.4%
14,O=C1c2c(O)cccc2[C@H]([C@@H]2O[C@H](CO)[C@@H](O)[C@H](O)[C@H]2O)c2cc(CO)cc(O)c21 [Aloin (Barbaloin)],0.91%
15,CN(C)c1nc(N(C)C)nc(N(C)C)n1 [Altretamine (Hexalen)],-3.75%
16,NC12CC3CC(CC(C3)C1)C2 [Amantadine hydrochloride (Symmetrel)],1.41%
17,CC(NC(C)(C)C)C(=O)c1cccc(Cl)c1 (centres unmarked) [Amfebutamone (Bupropion)],2.08%
18,N=C(N)NC(=O)c1nc(Cl)c(N)nc1N [Amiloride hydrochloride (Midamor)],-0.812%
19,NCCCCCC(=O)O [Aminocaproic acid (Amicar)],25.5%
20,Cn1c(=O)c2[nH]cnc2n(C)c1=O [Aminophylline (Truphylline)],12%

row,Compound,inhibition at 10 µM
1,CCOC(=O)C1=C(COCCN)NC(C)=C(C(=O)OC)C1c1ccccc1Cl (centres unmarked) [Amlodipine besylate (Norvasc)],-2.44%
2,CCC(C)(C)c1ccc(CC(C)CN2C[C@@H](C)O[C@@H](C)C2)cc1 (some centres unmarked) [Amorolfine Hydrochloride],-45.8%
3,CC1(C)S[C@@H]2[C@H](NC(=O)[C@H](N)c3ccc(O)cc3)C(=O)N2[C@H]1C(=O)O [Amoxicillin (Amox)],-1.15%
4,CC(C)(C#N)c1cc(Cn2cncn2)cc(C(C)(C)C#N)c1 [Anastrozole],3.89%
5,C=C1CC[C@@H]2[C@](C)(CO)[C@H](O)CC[C@@]2(C)[C@@H]1C/C=C1/C(=O)OC[C@H]1O [Andrographolide],-4.01%
6,N#CC1(c2ccc(NC(=O)c3cccnc3NCc3ccncc3)cc2)CCCC1 [Apatinib (YN968D1)],-0.459%
7,O=c1cc(-c2ccc(O)cc2)oc2cc(O)cc(O)c12 [Apigenin],-0.752%
8,COc1cc(C(C)=O)ccc1O [Apocynin (Acetovanillone)],-0.991%
9,C[C@@H](O[C@H]1OCCN(Cc2n[nH]c(=O)[nH]2)[C@H]1c1ccc(F)cc1)c1cc(C(F)(F)F)cc(C(F)(F)F)c1 [Aprepitant (MK-0869)],17.6%
10,"OC[C@H]1O[C@@H](Oc2ccc(O)cc2)[C@H](O)[C@@H](O)[C@@H]1O [Arbutin (Uva, p-Arbutin)]",-0.469%
11,CO[C@H]1O[C@@H]2O[C@@]3(C)CC[C@H]4[C@H](C)CC[C@@H]([C@H]1C)[C@@]24OO3 [Artemether (SM-224)],1.03%
12,C[C@H]1[C@H](OC(=O)CCC(=O)O)O[C@@H]2O[C@@]3(C)CC[C@H]4[C@H](C)CC[C@@H]1[C@@]24OO3 [Artesunate],-3.35%
13,C[C@H]1[C@H](C)CC[C@]2(C(=O)O)CC[C@]3(C)C(=CC[C@@H]4[C@@]5(C)C[C@@H](O)[C@H](O)[C@@](C)(CO)[C@@H]5CC[C@]43C)[C@H]12 [Asiatic acid],-2.44%
14,CC(C)(O)[C@H]1CC[C@@](C)([C@H]2[C@@H](O)C[C@@]3(C)[C@@H]4C[C@H](O[C@@H]5O[C@H](CO)[C@@H](O)[C@H](O)[C@H]5O)[C@H]5C(C)(C)[C@@H](O[C@@H]6OC[C@@H](O)[C@H](O)[C@H]6O)CC[C@@]56C[C@@]46CC[C@]23C)O1 [Astragaloside A],0.89%
15,COC(=O)N[C@H](C(=O)N[C@@H](Cc1ccccc1)[C@@H](O)CN(Cc1ccc(-c2ccccn2)cc1)NC(=O)[C@@H](NC(=O)OC)C(C)(C)C)C(C)(C)C [Atazanavir sulfate],2.12%
16,CN1[C@@H]2CC[C@H]1CC(OC(=O)C(CO)c1ccccc1)C2 (some centres unmarked) [Atropine],9.73%
17,CN1CCCC(n2nc(Cc3ccc(Cl)cc3)c3ccccc3c2=O)CC1 (centres unmarked) [Azelastine hydrochloride (Astelin)],-2.32%
18,"C[C@H]1[C@H](NC(=O)/C(=N\OC(C)(C)C(=O)O)c2csc(N)n2)C(=O)N1S(=O)(=O)O [Aztreonam (Azactam, Cayston)]",-1.22%
19,"Cn1c(CNc2ccc(C(=N)N)cc2)nc2cc(C(=O)N(CCC(=O)O)c3ccccn3)ccc21 [BIBR 953 (Dabigatran etexilate, Pradaxa)]",-1.4%
